# Source: patent publication US20230028414A1, “DOSING REGIMEN OF KRAS G12C INHIBITOR” (AMGEN INC., priority 2019, published 2023)
# Experiments:
# [1] = Phase 1 pharmacokinetics of Compound A at 960 mg once daily; format: in vivo, human; conditions: patients
# [2] = Phase 1 safety and treatment exposure, all enrolled patients; format: in vivo
# From the text: A subject undergoing a therapy is monitored for adverse events (AE) during the course of the therapy. A treatment related AE is an AE that is related to the treatment drug. A treatment emergent AE is one that a subject develops undergoing the treatment that was not present prior to start of therapy. In some cases, the treatment emergent AE is not or suspected not to be related to the treatment itself. AEs are characterized as one of five grades—grade 1 is a mile AE; grade 2 is a moderate AE; grade 3 is a severe AE; grade 4 is a life-threatening or disabling AE; and grade 5 is death related to AE.
# The grading of AEs is based on the guidelines provided in the CTCAE version 5.0. AEs for DLT assessment:
# Hematological toxicity: Febrile neutropenia; Neutropenic infection; Grade 4 neutropenia; Grade≥3 thrombocytopenia for>7 days; Grade 3 thrombocytopenia with grade≥2 bleeding; Grade 4 thrombocytopenia; Grade 4 Anemia Non-hematological toxicity Grade≥4, vomiting or diarrhea; Grade 3 diarrhea or grade 3 vomiting lasting more than 3 days despite optimal medical support; Grade≥3 nausea for 3 days or more despite optimal medical support; Any other grade≥3 AE
# [3] = system: KRAS p.G12C tumors; assay: Preclinical anti-tumor efficacy; format: in vivo; conditions: immune-competent mice
# From the text: KRAS is the most frequently mutated oncogene in human cancer and encodes a key signaling protein in tumors.
# [4] = system: other tumor types (appendiceal cancer, unknown primary cancer); assay: Phase 1 tumor response by RECIST 1.1, patients with other tumor types; format: in vivo, human; conditions: 2 evaluable patients with appendiceal cancer
# From the text: A complete response (CR) is disappearance of all target lesions and any pathological lymph nodes have a reduction in short axis to less than 10 mm. A partial response (PR) is at least a 30% decrease in the sum of diameters of target lesions, taking as reference the baseline sum diameters. A progressive disease is at least a 20% increase in the sum of diameters of target lesions, taking as reference the smallest sum on study (including the baseline sum if that is the smallest on study), and there must be an absolute increase of at least 5 mm in addition to the relative increase of 20%. A stable disease is neither sufficient shrinkage to qualify for PR nor sufficient increase to qualify for PD. […] The tumor size can be measured by radiographic scan.
# FIG. 2. […] Target lesions are measurable lesions defined by RECIST 1.1. Non-measurable lesions, as defined by RECIST 1.1, are considered non-target lesions. A PR is defined as at least a 30% decrease in the sum of the diameters of target lesions using the baseline sum of diameters as a reference. […]
# As of the data cutoff of Jul. […] The tumor types of two patients were re-classified after the cutoff: 1 patient who was initially recorded as having NSCLC had unknown primary cancer, and 1 patient who was initially recorded as having other tumor types had NSCLC. […]
# Tumor response was evaluated using RECIST 1.1. […]
# [5] = 76 enrolled patients, all doses
smiles,measurement,setting,value
"C=CC(=O)N1CCN(c2nc(=O)n(-c3c(C)ccnc3C(C)C)c3nc(-c4c(O)cccc4F)c(F)cc23)[C@@H](C)C1 [Compound A, 4-((S)-4-acryloyl-2-methylpiperazin-1-yl)-6-fluoro-7-(2-fluoro-6-hydroxyphenyl)-1-(2-isopropyl-4-methylpyridin-3-yl)pyrido[2,3-d]pyrimidin-2(1H)-one]",24-hour area under the curve,[1],65300 ng·h/mL
same,time of peak exposure after administration,[1],around 2 hours
same,deaths related to treatment,[2]; 7 deaths among 76 enrolled patients,none
same,patients with treatment-related grade 3 AEs,[2]; [5],7 patients
same,"patients with treatment-related grade 3 AEs, percent",[2]; [5],9.2%
same,tolerability,[2]; consistent across all doses,well tolerated with mild treatment-related toxicities
same,treatment-related AEs higher than grade 3 or cumulative toxicities,"[2]; extended treatment, all doses",no treatment-related AEs higher than grade 3 or cumulative toxicities were observed
same,anti-tumor effect in combination with immune checkpoint inhibition,[3],durable cures
same,tumor response,[4],PR (unconfirmed) and SD
